# From patent US11213029B2 (priority 2017, dated 2022)
# “Also recorded” adds a separate entry of the source. Read-outs that look alike come from different tables or passages of the source.
# Tests used:
# Assay type in all cases: cell-based
# [1] = test system: Xanthomonas oryzae pv. oryzae (Xoo); settings: 8 mm paper disc, 30° C., 24 hours; for degree of inhibition against the growth of Xoo: 10 mM or 20 mM, dark condition, FIGS. 2 and 3; for degree of inhibition against the growth of Xoo (inhibition radius): 10 mM, FIG. 1
# [2] = test system: Xanthomonas oryzae pv. oryzae (Xoo); settings: biplate, paper disc on opposite side, 10 mM, 30° C., dark condition, 24 hours; FIG. 4
# Magnaporthe oryzae = settings: 500 mM (40 μl) on disc, 1.5 cm apart, 28° C., 96 hours; FIG. 7
# Xanthomonas oryzae = settings: by volatility, same manner as Example 3 (10 mM); FIG. 5
Compound,degree of inhibition against the growth of Xoo [1],degree of inhibition against the growth of Xoo by volatility [2],growth inhibition of Magnaporthe oryzae (Magnaporthe oryzae),degree of inhibition against the growth of Xoo (inhibition radius) [1],inhibitory effect against the growth of Xanthomonas oryzae compared to Xanthomonas fragariae and Xanthomonas axonopodis (Xanthomonas oryzae),degree of inhibition against the growth of Xoo ([1]; listed as (S)-(+)-carvone),degree of inhibition against the growth of Xoo ([1]; listed as (R)-(−)-carvone)
"C=C(C)C1CCC2(C)OC2C1 (single isomer, unassigned; (-)) [(−)-limonene oxide]",effect of directly inhibiting the growth,did not show a strong inhibitory effect against the growth but showed a larger area for the inhibitory effect compared to those of carveol and carvone,effect of inhibiting the growth,–,–,–,–
"C=C(C)[C@H]1CC=C(C)CC1 [(R)-(+)-limonene, R-(+)-limonene, reference compound]",–,no significant effect,–,–,–,–,–
"C=C(C)[C@@H]1CC=C(C)CC1 [(S)-(−)-limonene, S-(−)-limonene, reference compound]",–,no significant effect,inhibited the growth,inhibitory effect,more specifically significant inhibitory effect against the growth of Xanthomonas oryzae,–,–
C=C(C)C1CC=C(C)[C@@H](O)C1 (stereo partly drawn) [L-carveol],effect of directly inhibiting the growth; also recorded: particularly strong inhibitory effect,strong inhibitory effect,effect of inhibiting the growth,larger inhibition radius than that of limonene,more specifically significant inhibitory effect against the growth of Xanthomonas oryzae,–,–
C=C(C)[C@H]1CC=C(C)C(=O)C1 [S-(+)-carvone],effect of directly inhibiting the growth,strong inhibitory effect,effect of inhibiting the growth,larger inhibition radius than that of limonene,more specifically significant inhibitory effect against the growth of Xanthomonas oryzae,particularly strong inhibitory effect,–
Cc1ccc(C(C)C)cc1O [carvacrol],effect of directly inhibiting the growth,–,effect of inhibiting the growth,–,–,–,–
CC1=CCC(C(C)(C)O)CC1 (stereo not drawn) [α-terpineol],effect of directly inhibiting the growth,–,effect of inhibiting the growth,–,–,–,–
(+)-isopulegol,effect of directly inhibiting the growth,–,effect of inhibiting the growth,–,–,–,–
(+)-limonene oxide,effect of directly inhibiting the growth,–,effect of inhibiting the growth,–,–,–,–
(S)-(−)-perillyl alcohol,effect of directly inhibiting the growth,–,effect of inhibiting the growth,–,–,–,–
(−)-isopulegol,effect of directly inhibiting the growth,–,effect of inhibiting the growth,–,–,–,–
R-(−)-carvone,effect of directly inhibiting the growth,strong inhibitory effect,effect of inhibiting the growth,–,–,–,particularly strong inhibitory effect
